In patent publication US6458766B1, “Halovir, an antiviral marine natural product, and derivatives thereof” (The Regents of the University of California, priority 1998, dated 2002):
Read-outs that look alike come from different tables or passages of the source. Non-standard residues stand in square brackets, D forms with d. Residues, ends and D or L forms follow the SMILES beside them. *: point of attachment. Myristoyl = CCCCCCCCCCCCCC(=O)*; Hyp = O=C(O)[CH]1C[CH](O)CN1; Leu(ol) = CC(C)C[CH](N)CO; X1 = CC(=O)OCC(CC(C)C)N*; Aib = CC(C)(N)C(=O)O

Columns and labels:
HSV-1 [1] = assay: MTT assay for antiviral activity against HSV-1 in Vero cells; assay type: cell-based, Herpes simplex virus; settings: for cells subjected to infection protected: test concentration 2.5 μg/mL, Vero cells, 50 pfu virus, five days incubation; for antiviral activity against HSV-1: pure compounds from C18 HPLC of active fractions
Experimental: Antiviral activity of the halovirs was determined in vitro against the. HSV-I by an MTT assay (Hitoshi Takeuchi, An application of tetrazolium (MTT) calorimetric assay for screening of anti-herpes simplex virus compounds, Journal of Virological Methods, 33 (1991) 61-71), modified as follows. Vero cells were plated at a concentration of 10,000 cells/well in 100 μL of minimum essential medium (MEM) containing 5% fetal bovine serum (FBS) in 96-well plates. The cells were incubated overnight at 37° C. and 5% CO2. The media was removed by aspiration, and 100 μL of phosphate buffered saline (PBS) was added to each well and then aspirated. The wells were treated with 100 μL of MEM containing 50 plaque forming units (pfu) of virus and incubated for one hour. Each well was then overlayed with 100 μL of media containing 2% FBS and serial dilutions of an appropriate halovir solution. The halovir solution was previously prepared by dissolving the halovir in DMSO. After incubation for five days, each well was treated with 20 μL of a solution of 10 mg/mL of MTT in PBS. […] The media was carefully aspirated, and 100 μL of acidified isopropanol was added to dissolve any formazan produced. Acidified isopropanol solution is prepared by adding 50 mL Triton X100 and 2 mL concentrated HCL to 450 mL isopropanol. The optical density of the wells at 550 nm was determined using an ELISA plate reader. The amount of formazan present is directly proportional to the number of surviving cells in a given well. The amount of formazan were spectrophotometrically measured in wells with no antiviral agent and virus to establish a quantitative standard for 100% cell survival. Similarly wells with only virus were measured and used to establish a quantitative standard for 0% cell survival. At a test concentration of 2.5 μg/mL, Halovirs A, B, C, and D protected 50%, 40%, 33%, and 55%, respectively, of the cells subjected to infection.

HSV-1 [2] = assay type: cell-based, Herpes simplex virus
Experimental: Four experimental solutions were prepared.
Solution 1: Viral Inactivation
HSV-1 was diluted to 50,000 pfu/ml in 1.35 mL MEM with 0% Fetal Bovine Serum (0% MEM). This was treated with 8.2 μL of a solution of Halovir A dissolved in DMSO at a concentration of 25 mg/mL.
Solution 2: DMSO Inactivation Control
Solution 2 was prepared in an identical manner as solution 1, except that pure DMSO was added to the viral suspension.
This experiment provides a baseline for 100% cell survival. Solution 3 was prepared with 1.35 mL 0% MEM with 8.2 μL DMSO.
Solution 4: Normal Assay Conditions
Virus was diluted in 1.36 mL 0% MEM to a final concentration of 50,000 pfu/mL. No DMSO or Halovir A was added.
All solutions were vortexed for 30 seconds and then shaken at ambient temperature for 2.5 hours. They were then vortexed for 30 seconds, and 100 μL of each was diluted with 9.9 mL of 0% MEM (100×dilution). The diluted solutions are herein referred to as solutions 1-4.
96-well microtiter plates were prepared with Vero cells overnight, washed with PBS, and aspirated as previously described. 100 μL of Solution 1 was added to each well of a microtiter plate containing cells. This was repeated for Solutions 2-4. The plates were incubated at 37° C. and 5% CO2. After one hour, experiment plates prepared with Solutions 1-3 were overlaid with 100 μL of 2% MEM. […]

SMILES	cells subjected to infection protected (HSV-1 [1]) [%]	antiviral activity against HSV-1 (HSV-1 [1])	mean optical density at 550 nm (OD) (HSV-1 [2]; Solution 1: HSV-1 treated with Halovir A for 2.5 hours, 100x dilution, then added to Vero cells, mean of 80 wells)	mean optical density at 550 nm (OD) (HSV-1 [2]; Solution 4: normal assay conditions, untreated virus, overlay with 2% MEM containing 1.5 μg/mL Halovir A after one hour)
CCCCCCCCCCCCCC(=O)NC(C)(C)C(=O)N1CC(OC(C)=O)CC1C(=O)NC(CC(C)C)C(=O)NC(C(=O)NC(CCC(N)=O)C(=O)NC(COC(C)=O)CC(C)C)C(C)C (stereo not drawn) [Halovir D, CH3(CH2)12C(O)-Aib-Hyp(OAc)-Leu-Val-Gln-Leu(OAc)] (Myristoyl-[Aib][Hyp](Ac)LVQ-X1; configuration not given here)	55			
CCCCCCCCCCCCCC(=O)NC(C)(C)C(=O)N1CCCC1C(=O)NC(CC(C)C)C(=O)NC(C(=O)NC(CCC(N)=O)C(=O)NC(CO)CC(C)C)C(C)C (stereo not drawn) [Halovir C, CH3(CH2)12C(O)-Aib-Pro-Leu-Val-Gln-Leu(OH)] (Myristoyl-[Aib]PLVQ[Leu(ol)]; configuration not given here)	33	potent antiviral activity		
CCCCCCCCCCCCCC(=O)NC(C)(C)C(=O)N1CC(O)CC1C(=O)NC(CC(C)C)C(=O)NC(C(=O)NC(CCC(N)=O)C(=O)NC(CO)CC(C)C)C(C)C (stereo not drawn) [Halovir A, CH3(CH2)12C(O)-Aib-Hyp-Leu-Val-Gln-Leu(OH)] (Myristoyl-[Aib][Hyp]LVQ[Leu(ol)]; configuration not given here)	50	potent antiviral activity	1.18	0.32
CCCCCCCCCCCCCC(=O)NC(C)(C)C(=O)N1CC(O)CC1C(=O)NC(CC(C)C)C(=O)NC(C)C(=O)NC(CCC(N)=O)C(=O)NC(CO)CC(C)C (stereo not drawn) [Halovir B, CH3(CH2)12C(O)-Aib-Hyp-Leu-Ala-Gln-Leu(OH)] (Myristoyl-[Aib][Hyp]LAQ[Leu(ol)]; configuration not given here)	40	potent antiviral activity		
